# Key:
# E. coli K12 PBP3 = molecular target: T1, E. coli K12 PBP3 (Escherichia coli, UniProt P0AD68); assay: biochemical; format: binding
# T1 construct: made in house
# Method in brief: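 Fluorescence polarization (ex 490/em 520 nm) competition of inhibitors against Bocillin-FL at 0.1 μM, read up to 60 min. Final PBP levels: E. coli PBP3 1.5 μM; A. baumannii PBP2 2.5 μM, PBP3 0.2 μM in Tris pH 8.0/NaCl/glycerol/Tween 20; N. gonorrhoeae PBP2 […] in Hepes pH 8.0/NaCl/glycerol. EC50 = concentration halving PBP-bound Bocillin-FL.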
# [1] = tested on: N. gonorrhoeae ATCC 49226; assay: Liquid broth MIC in Fastidious broth; format: cell-based; conditions: Neisseria gonorrhoeae, ATCC49226; N. gonorrhoeae strain ATCC 49226; Fastidious broth; read-out: Minimum Inhibitory Concentration, N. gonorrhoeae ATCC 49226
# Method: (§1) Example V: In Vitro Antibacterial Assays for N. gonorrhoeae Strains
# (§2) Additional antibacterial testing of the series was performed in 8 reference strains of N. gonorrhoeae (ATCC 49226, FA1090, WHO G, WHO L, WHO K, H041, WHO Z, and WHO Q). ATCC 49226, FA1090, WHO G, and WHO L produce wild type or wild-type like PBP2. WHO K, H041, WHO Z, and WHO Q produce mosaic PBP2. Liquid broth-based assays were used for antibacterial testing of PBP inhibitors in Neisseria gonorrhoeae. Briefly, cryo-preserved bacterial cultures of clinical strains were streaked for isolation on Chocolate Agar (72 g/L (2×) GC Agar Base (BD #228950) and 2% (2×) Hemoglobin was autoclaved at 121° C. for 20 minutes to sterilize. Once cooled to ˜50° C. the 2× GC Agar Base and 2× Hemoglobin solutions are combined and 1% IsoVitaleX Enrichment (BD #211876) was added to the solution). Strains were incubated at 36° C. and 5% CO2 to allow growth of colonies, 24 hours before inoculum preparation. 2-fold serial dilutions of test compounds were conducted in a 96 well plate with a final volume of 75 μL per well at 2-fold the final desired concentration in Fastidious broth (Remel #R07664). For preparation of assay inoculum, a direct suspension was prepared by aseptically swabbing all colonies from agar plates into culture tubes containing 2 mL of fresh sterile saline. After the dilution plates were set up, direct suspensions were then diluted in a cuvette containing sterile saline and the optical density was measured at 600 nm. Inocula were diluted such that 75 μL of this culture in Fastidious broth results in a starting bacterial concentration of 5×10^5 CFU/mL when added to the dilution plates. The plates were incubated for ˜24 hours at 36° C. and 5% CO2. The MIC was read visually as the lowest concentration well with <10% bacterial growth compared to wells of full growth.
# N. gonorrhoeae FA1090 = assay: Liquid broth MIC in Fastidious broth; format: cell-based; conditions: Neisseria gonorrhoeae; N. gonorrhoeae strain FA1090; Fastidious broth; read-out: Minimum Inhibitory Concentration, N. gonorrhoeae FA1090
# Method: as §1, §2
# N. gonorrhoeae H041 = assay: Liquid broth MIC in Fastidious broth; format: cell-based; conditions: Neisseria gonorrhoeae, H041, read-out: Minimum Inhibitory Concentration, N. gonorrhoeae H041
# Method: as §1, §2
# N. gonorrhoeae WHO G = assay: Liquid broth MIC in Fastidious broth; format: cell-based; conditions: Neisseria gonorrhoeae; N. gonorrhoeae strain WHO G; Fastidious broth; read-out: Minimum Inhibitory Concentration, N. gonorrhoeae WHO G
# Method: as §1, §2
# N. gonorrhoeae WHO K = assay: Liquid broth MIC in Fastidious broth; format: cell-based; conditions: Neisseria gonorrhoeae, read-out: Minimum Inhibitory Concentration, N. gonorrhoeae WHO K
# Method: as §1, §2
# N. gonorrhoeae WHO L = assay: Liquid broth MIC in Fastidious broth; format: cell-based; conditions: Neisseria gonorrhoeae; N. gonorrhoeae strain WHO L; Fastidious broth; read-out: Minimum Inhibitory Concentration, N. gonorrhoeae WHO L
# Method: as §1, §2
# N. gonorrhoeae WHO Z = assay: Liquid broth MIC in Fastidious broth; format: cell-based; conditions: Neisseria gonorrhoeae, read-out: Minimum Inhibitory Concentration, N. gonorrhoeae WHO Z
# Method: as §1, §2
# P. aeruginosa PBP3 = molecular target: T2, P. aeruginosa PBP3 (Pseudomonas aeruginosa, UniProt G3XD46); assay: Bocillin-FL fluorescence polarization competition binding assay, P. aeruginosa PBP3; conditions: fluorescence polarization competition binding assay using Bocillin-FL
# T2 construct: made in house
# T2 sequence (G3XD46 whole entry): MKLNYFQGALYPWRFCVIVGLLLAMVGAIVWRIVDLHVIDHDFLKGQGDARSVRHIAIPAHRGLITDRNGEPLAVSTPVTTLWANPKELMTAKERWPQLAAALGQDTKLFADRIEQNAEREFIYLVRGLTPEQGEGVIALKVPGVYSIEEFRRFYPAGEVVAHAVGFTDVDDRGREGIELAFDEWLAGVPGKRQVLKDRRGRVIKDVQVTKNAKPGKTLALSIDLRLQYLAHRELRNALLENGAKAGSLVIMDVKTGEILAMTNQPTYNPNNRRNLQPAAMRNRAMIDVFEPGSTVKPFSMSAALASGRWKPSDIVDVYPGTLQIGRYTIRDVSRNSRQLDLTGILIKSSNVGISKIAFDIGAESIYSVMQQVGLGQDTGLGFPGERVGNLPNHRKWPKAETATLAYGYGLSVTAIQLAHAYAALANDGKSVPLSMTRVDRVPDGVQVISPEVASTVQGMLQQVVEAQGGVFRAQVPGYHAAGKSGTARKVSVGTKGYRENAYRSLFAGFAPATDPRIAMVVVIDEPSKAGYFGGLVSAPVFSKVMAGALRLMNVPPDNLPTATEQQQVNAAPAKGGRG
# Method in brief: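 Binding of boronic acid inhibitors to purified Pseudomonas aeruginosa (PA01) PBP3 was measured by fluorescence polarization competition with Bocillin-FL, a fluorescent penicillin V. Reactions of 80 μl contained 0.75 μM PBP3 and 0.1 μM Bocillin-FL in 50 mM Hepes (pH 8.0), 300 mM NaCl and 5% (v/v) glycerol, in black 384-well plates. FP (Excitation 490 nm, Emission 520 nm) was read for up to 60 minutes. EC50 is the concentration that halves PBP-bound Bocillin-FL.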
# [2] = Bocillin-FL fluorescence polarization competition binding assay, A. baumannii PBP3; conditions: fluorescence polarization competition binding assay using Bocillin-FL; column 3; read-out: 4. baumannii PBP1a Potency
# Description: Example I: Experimental Method for Penicillin-Binding Protein Binding Assays with Bocillin-FL Via Fluorescence Polarization
# To determine the ability of boronic acid-based test PBP inhibitors to bind Penicillin Binding Proteins (PBPs), Bocillin-FL (fluorescently-labeled penicillin V; ThermoFisher Scientific) was used in a fluorescence polarization (FP) competition binding assay to assess inhibitor binding to PBP2, PBP3 or PBP4 from Escherichia coli (K12), PBP3 from Pseudomonas aeruginosa (PA01), PBP1a, PBP2 and PBP3 from Acinetobacter baumannii (ATCC 19606), and PBP2 from Neiserria gonorrheae (FA19). PBPs were cloned and purified as described previously (E. coli PBPs, King, D. T, et al., ACS Infectious Diseases 2015, 1, 175-184; P. aeruginosa PBP3, Han et. al., PNAS 2010, 107 (51), 22002-22007; A. baumannii PBPs, Penwell et. al., Antimicrob. Agents Chemother. 2015, 59 (3), 1680-1689; N. gonorrhoeae PBP2, Singh et. al., J Biol. Chem. 2019, 294 (38), 14020-14032). To establish assay conditions for competition binding, enzyme titration/saturation binding experiments were initially performed. Bocillin-FL was prepared at 0.2 μM in a buffer comprised of 50 mM Hepes (pH 8.0), 300 mM NaCl and 5% (v/v) glycerol for reactions with E. coli, P. aeruginosa and N. gonorrhoeae PBPs, and 25 mM Tris (pH 8.0), 200 mM NaCl and 10% (v/v) glycerol and 0.005% (v/v) Tween 20 for reactions with A. baumannii PBPs. Saturation binding was performed by mixing 40 μl of PBP solutions ranging in concentrations from 0-24 μM with 40 μl of the 0.2 μM Bocillin-FL solution, in individual wells of a black 384-well microplate. FP was measured immediately upon mixing (Excitation, 490 nm; Emission, 520 nm; g-factor, 0.96), using a Cytation3 (BioTek) microplate reader and measured continuously for up to 120 minutes. […] The competition binding assay (80 μl final volume) was validated using beta-lactams and PBPs at final concentrations of: 1.5 μM, E. coli PBP3; 0.75 μM, P. aeruginosa PBP3; 1 μM A. baumannii PBP1a; 2.5 μM A. baumannii PBP2; 0.2 μM A. baumannii PBP3; and […] N. gonorrhoeae PBP2. Bocillin-FL was at 0.1 μM (0.05 μM with A. baumannii PBP1a) and beta-lactam concentrations ranged from 0-1000 μM. […] Bocillin-FL was added and the FP immediately measured for up to 60 minutes (90 minutes for E. coli PBP2). […] The beta-lactam potency was reported as the concentration of beta-lactam required to reduce the amount of PBP bound-Bocillin-FL by 50% (EC50). […] Binding assays for boronic acid PBP inhibitors were performed in an identical fashion for the respective PBPs
# A. baumannii ATCC 19606 = assay: Broth microdilution MIC in CAMHB; format: cell-based; conditions: Acinetobacter baumannii, ATCC19606; MHB; read-out: Minimum Inhibitory Concentration, A. baumannii ATCC 19606
# Method in brief: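 MIC, read by eye, is the lowest compound concentration giving no bacterial growth after 16-20 h at 37° C. Test compounds are serially diluted 2-fold in CAMHB and seeded with 2-8×10^5 CFU/mL of bacteria taken from a 3-5 h shaking culture, following CLSI methods.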
# E. coli 901C = assay: Broth microdilution MIC in CAMHB; format: cell-based; conditions: Escherichia coli; E. coli 901C (hyper-permeable); MHB; read-out: Minimum Inhibitory Concentration, E. coli 901C
# Method in brief: (§3)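 CLSI broth microdilution in CAMHB: 2-fold compound dilutions inoculated at 2-8×10^5 CFU/mL from 3-5 h log-phase cultures. Incubated at 37 °C for 16-20 h (Enterobacteriaceae, Pseudomonas); MIC read visually as lowest concentration without growth. Strains include hyper-permeable and efflux-deficient mutants.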
# E. coli AG100A = assay: Broth microdilution MIC in CAMHB; format: cell-based; conditions: Escherichia coli, read-out: Minimum Inhibitory Concentration, E. coli AG100A
# Method in brief: as §3
# E. coli AG100 = assay: Broth microdilution MIC in CAMHB; format: cell-based; conditions: Escherichia coli; E. coli AG100 (wild-type parent); MHB; read-out: Minimum Inhibitory Concentration, E. coli AG100
# Method in brief: as §3
# E. coli ATCC 25922 = assay: Broth microdilution MIC in CAMHB; format: cell-based; conditions: Escherichia coli, ATCC25922; E. coli ATCC 25922; MHB; read-out: Minimum Inhibitory Concentration, E. coli 25922
# Method in brief: as §3
# E. coli D22 = assay: Broth microdilution MIC in CAMHB; format: cell-based; conditions: Escherichia coli; E. coli D22 (hyper-permeable); MHB; read-out: Minimum Inhibitory Concentration, E. coli D22
# Method in brief: as §3
# [3] = tested on: K. pneumoniae 848844 producing SHV-11 and KPC-2; assay: Broth microdilution MIC in CAMHB; format: cell-based; conditions: Klebsiella pneumoniae, read-out: Minimum Inhibitory Concentration, K. pneumoniae 848844
# Method in brief: as §3
# [4] = tested on: K. pneumoniae SI-117 producing VIM-1; assay: Broth microdilution MIC in CAMHB; format: cell-based; conditions: Klebsiella pneumoniae, read-out: Minimum Inhibitory Concentration, K. pneumoniae SI-117
# Method in brief: as §3
# [5] = tested on: K. pneumoniae UMM producing SHV-5 and KPC-2; assay: Broth microdilution MIC in CAMHB; format: cell-based; conditions: Klebsiella pneumoniae, read-out: Minimum Inhibitory Concentration, K. pneumoniae UMM
# Method in brief: as §3
# [6] = tested on: P. aeruginosa (ΔmexAB-oprM); assay: Broth microdilution MIC in CAMHB; format: cell-based; conditions: Pseudomonas aeruginosa, read-out: Minimum Inhibitory Concentration, P. aeruginosa ΔmexAB-OprM
# Method in brief: as §3
# P. aeruginosa ATCC 27853 = assay: Broth microdilution MIC in CAMHB; format: cell-based; conditions: Pseudomonas aeruginosa, ATCC27853; MHB; read-out: Minimum Inhibitory Concentration, P. aeruginosa ATCC 27853
# Method in brief: as §3
# P. aeruginosa ATCC 35151 = assay: Broth microdilution MIC in CAMHB; format: cell-based; conditions: Pseudomonas aeruginosa, ATCC35151; MHB; hyper-permeable strain; read-out: Minimum Inhibitory Concentration, P. aeruginosa ATCC 35151
# Method in brief: as §3
# T1 sequence (P0AD68 1-577): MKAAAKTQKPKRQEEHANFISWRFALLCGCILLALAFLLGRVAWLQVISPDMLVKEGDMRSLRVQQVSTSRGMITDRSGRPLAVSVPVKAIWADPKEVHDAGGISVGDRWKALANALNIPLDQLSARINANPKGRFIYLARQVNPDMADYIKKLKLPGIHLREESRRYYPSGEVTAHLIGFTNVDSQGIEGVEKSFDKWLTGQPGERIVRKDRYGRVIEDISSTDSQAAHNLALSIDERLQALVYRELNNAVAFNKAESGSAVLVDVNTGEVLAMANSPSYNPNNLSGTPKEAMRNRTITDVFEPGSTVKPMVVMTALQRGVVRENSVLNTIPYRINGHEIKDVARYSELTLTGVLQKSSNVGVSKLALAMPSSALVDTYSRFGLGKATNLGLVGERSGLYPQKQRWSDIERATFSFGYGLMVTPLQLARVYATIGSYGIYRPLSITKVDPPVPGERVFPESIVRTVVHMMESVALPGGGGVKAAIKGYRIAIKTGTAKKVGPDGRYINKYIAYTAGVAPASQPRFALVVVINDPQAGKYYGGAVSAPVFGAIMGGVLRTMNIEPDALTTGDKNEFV
structure (smiles),measurement,setting,value
"CC(C)(C)[C@@H](NC(=O)c1c(F)cc(O)c(O)c1Cl)C(=O)N[C@H]1Cc2ccc(F)c(C(=O)O)c2OB1O [Example 12, (R)-3-((R)-2-(2-chloro-6-fluoro-3,4-dihydroxybenzamido)-3,3-dimethylbutanamido)-7-fluoro-2-hydroxy-3,4-dihydro-2H-benzo[e][1,2]oxaborinine-8-carboxylic acid]",EC50,E. coli K12 PBP3,30 to 500 µM
same,MIC,[1],> 64 µg/mL
same,MIC,N. gonorrhoeae FA1090,> 64 µg/mL
same,MIC,N. gonorrhoeae H041,> 64 µg/mL
same,MIC,N. gonorrhoeae WHO G,> 64 µg/mL
same,MIC,N. gonorrhoeae WHO K,> 64 µg/mL
same,MIC,N. gonorrhoeae WHO L,> 64 µg/mL
same,MIC,N. gonorrhoeae WHO Z,> 64 µg/mL
"NCCCN1CCN(C(=O)N[C@@H](C(=O)N[C@H]2Cc3cccc(C(=O)O)c3OB2O)c2ncc(O)cc2F)C(=O)C1=O [Example 13, (R)-3-((R)-2-(4-(3-aminopropyl)-2,3-dioxopiperazine-1-carboxamido)-2-(3-fluoro-5-hydroxypyridin-2-yl)acetamido)-2-hydroxy-3,4-dihydro-2H-benzo[e][1,2]oxaborinine-8-carboxylic acid]",EC50,E. coli K12 PBP3,< 30 µM
same,P. aeruginosa PBP3 Potency,P. aeruginosa PBP3,D (D represents a potency <10 μM)
same,EC50,[2],< 10 µM
same,MIC,A. baumannii ATCC 19606,> 128 µg/mL
same,MIC,E. coli 901C,0.5 to 1 µg/mL
same,MIC,E. coli AG100A,0.5 to 1 µg/mL
same,MIC,E. coli AG100,8 to 16 µg/mL
same,MIC,E. coli ATCC 25922,8 to 16 µg/mL
same,MIC,E. coli D22,2 to 4 µg/mL
same,MIC,[3],32 to 64 µg/mL
same,MIC,[4],8 to 16 µg/mL
same,MIC,[5],8 to 16 µg/mL
same,MIC,[6],2 to 4 µg/mL
same,MIC,P. aeruginosa ATCC 27853,32 to 64 µg/mL
same,MIC,P. aeruginosa ATCC 35151,< 0.25 µg/mL

# — patent publication US20230114728A1 (Venatorx Pharmaceuticals, Inc., priority 2019, published 2023)
